Measured values from patent publication US20240374681A1, “Formulation for Co-Administration of Q-GRFT and Tenofovir” (priority 2021, published 2024).

Experiments:
[1] = test system: Caco-2 monolayer cell model; assay: Caco-2 monolayer permeability of paracellular marker [^14C]-Mannitol
Excerpt: Caco-2 Monolayer Cell Model Permeability Study Procedure: The procedure was adapted from a previously reported method to build a Caco-2 monolayer cell model and perform the permeability studies. Cell passages 34 to 42 were used to build the model in different batches. For preparation, a total of 3×10^5 Caco-2 cells were dispensed on the apical side of each Transwell filter. The model would be ready after 21-29 days of culture. The model was validated with a paracellular marker, [^14C]-Mannitol. […] To study the permeability, the sample solution was gently dispensed on the apical side of the model and cultured at 37° C. for 2 hours. […] The apparent permeability coefficients (Papp) were calculated using Equation 1, below.
[formula] [formula] • Papp (cm/sec): the apparent permeability coefficient;
(ng/sec): the rate of drug transportation; A (cm^2): the surface area of the cell layers; C0 (ng/ml): The initial drug concentration in the donor side.

[2] = test system: Caco-2 monolayer cell model; settings: reported literature value; cited from earlier work
[3] = test system: Caco-2 monolayer cell model; settings: 2-hour treatment, threshold 165 Ω*cm^2
Procedure: Caco-2 Monolayer Cell Model Toxicity Study Procedure: Passages 33 to 43 of the Caco-2 cell line were used in the studies. The Caco-2 cells were cultured in complete Dulbecco's modified Eagle's medium (DMEM) [500 ml of DMEM (Corning) containing 50 ml fetal bovine serum (FBS; Gibco Qualified One-Shot, Thermo Scientific) and 5 ml PEST (penicillin 10,000 U/ml-streptomycin, 10,000 ug/ml-glutamine 29.2 mg/ml solution (100×); Gibco, Fisher Scientific)] at 37° C. with 5% CO2 incubation. […] After overnight incubation, the samples were added to the wells and treated for 24 hours. […] A toxicity study utilizing the Caco-2 model was performed prior to permeability studies to examine the safety of the complete liquid formulations. Samples were applied on the apical side of the Transwell. After 2-hour treatments, the treated samples were discarded and washed off twice with HBSS. […] TEER values were also measured before and after the treatments as supplemental criteria for the toxicity study.

[4] = Q-GRFT content determination by HPLC (incl. stability study); format: physicochemical; settings: molar ratios 3, 6, 12 to Q-GRFT monomer, 40° C./75% RH for 3 months
Procedure: Stability Study Procedure: Individual enema bottles containing 125 ml of solution were stored under three conditions (4° C.; 25° C./60% RH; 40° C./75% RH) and monitored over time (24 months for 4° C. and 25° C./60% RH; 6 months for 40°° C./75% RH). At each time point (1, 2, 3, 6, 9, 12, 18, and 24 months), physicochemical characteristics were evaluated and compared against the critical quality assessments (CQAs) according to the following procedures.
(§1) Q-GRFT Content Determination by High-Performance Liquid Chromatography: The High-Performance Liquid Chromatography (HPLC) method for measuring Q-GRFT content was previously developed and reported elsewhere. The samples were diluted 2 times with Milli-Q water. The Q-GRFT content was detected by an HPLC system (Waters Corporation, Milford, MA) equipped with an auto-injector (model 717), a quaternary pump (model 600), and a photodiode array detector (model 2996)) with a C5 column (Jupiter 5 μm 300 Å, 250×4.6 mm) and a C5 pre-column (Security Guard Standard Widepore).
Lyophilization: For samples with cryoprotectants, sugar/sugar polyol powders were weighed and added in individual scintillation vials. The Q-GRFT stock solution was then added. The sample vials were mixed until the powder dissolved. Next, the vials containing sample solution (with or without the addition of cryoprotectants) were transferred to a −80° C. freezer to freeze overnight. Until lyophilization, the samples were tilted and placed in the beaker, attached to a pre-set lyophilizer (Labconco FreeZone Freeze Dry System, Kansas City, MO). The lyophilizing process was set to maintain the environment at −50° C. and 0.070 mBar. Sample vials were measured for their weights after lyophilizing for at least two days. Once the weights were stable, indicating no more water was removed, the lyophilized powder was taken out of the vials and ground with a mortar and pestle. The lyophilized powder would be packed in a tube at 4° C. (unless other conditions were indicated) until further characterizations.
as §1, with “Chromatography (HPLC):” for “Chromatography:”, “HPLC” for “High-Performance Liquid Chromatography (HPLC)”, “measuring the” for “measuring”, “was” for “was previously”, “developed in-house” for “developed”, “previously.” for “elsewhere.”

[5] = pH measurement of enema formulations / reconstituted solutions (pH meter); format: physicochemical; settings: stock solution in 1× PBS
Excerpt: To investigate if the vehicle strength impacts the pH and osmolality of formulations, PBS-base was used directly (1× PBS) or diluted (50% PBS) with or without the addition of TFV and Q-GRFT. To study if the vehicle composition impacts the pH and osmolality of formulations, PBS-base and saline-base were used directly (1× PBS; 1× saline) with the addition of TFV and Q-GRFT. Three formulations (50% PBS, 1× PBS, 1× saline; all with the addition of TFV and Q-GRFT) were chosen to further evaluate the effects of pH adjusting agents on osmolality. For the final screening, both vehicles (PBS-base and saline-base) were diluted into three strengths, 30%, 35%, and 40% with the addition of TFV and Q-GRFT. pH and osmolality were measured as in-line checkpoints for screening and quality assurance.
Manufacturing Procedure: Stock buffer (10× PBS or Saline) was diluted with Milli-Q water to a solution with lower osmolality than desired (˜40 mOsm/kg lower). […] Finally, Q-GRFT stock solution (in 1× PBS) was measured and added to the solution to make the final product. […]
pH: The pH was determined using a pH meter (XL150 pH Benchtop Meters, Fisher Scientific). […]
pH: The pH was determined by a pH meter (XL150 pH Benchtop Meters, Thermo Fisher Scientific; Waltham, MA). […] The pH was recorded only after the value stayed stable.

HIV-1 gp120CM = assay: gp120 binding bioactivity by ELISA
Procedure: Bioactivity Determination using Enzyme-linked Immunosorbent Assay (ELISA): An ELISA was applied to evaluate the gp120 binding activity of select Q-GRFT samples. Nunc MaxiSorp 96-well plates were used for this experiment. The MaxiSorp surface is a hydrophilic/hydrophobic mix that binds to a wide range of biomolecules. In short, gp120 was bound to the wells of a 96-well plate overnight at 4° C. The HIV-1 gp120CM was purchased from Kentucky Bioprocessing (KBP; Part #C-1312). After overnight incubation, the solution of gp120 was removed, and a blocking solution (1× PBS-T [PBS with 0.05% Tween 20]) was applied for two hours at room temperature. After that, the wells were washed and incubated with various dilutions of Q-GRFT samples for one hour. Gp120 binding was detected by applying goat anti-Q-GRFT primary antibody (one-hour incubation) and HRP-labeled rabbit anti-goat secondary antibody (one-hour incubation), sequentially. […] Gp120 binding was measured at 450 nm.
Bioactivity Determination by Enzyme-linked Immunosorbent Assay (ELISA): An ELISA was adapted and applied to evaluate the gp120 binding activity of the Q-GRFT samples. […] Gp120 binding was detected by applying goat anti-Q-GRFT primary antibody (one-hour incubation) and HRP-labeled rabbit anti-goat secondary antibody (one-hour incubation), sequentially. […] Gp120 binding was measured at 450 nm with a plate reader.

human colon tissue = assay: Ex vivo human colon tissue permeability of Q-GRFT in Ussing chamber; settings: all time points, LLOQ of the HPLC method
Procedure: Permeability and Toxicity Assessment with the Ex Vivo Human Colon Tissue: Tissue specimens were collected from patients 18-75 years old. A section of each tissue was retained for histological evaluation with hematoxylin and eosin (H&E) staining assay. After removal of the excess stromal tissue, the epithelial tissue was placed between the donor and receptor compartments of the Ussing chamber apparatus with the epithelial side toward the donor compartment. This set-up was maintained at 37° C. throughout the experiment. Both donor and receptor compartments were filled with KRBG during system calibration. Then the KRBG buffer from the donor sides was replaced with sample solutions. 50 μL was removed from the donor compartment at the beginning and the end of the experiments. At predetermined time points (Time 0, 15, 30, 45, 60, 75, 90, 120 minutes), 200 μL was removed from the receptor chamber and the same volume of fresh KRBG was added for replacement. These samples were held at 4° C. until analyzed by UPLC (for TFV) or HPLC (for Q-GRFT). The Papp values were calculated using Equation 1 as described above. All tissues, including pre-treatment and post-treatment tissues from all groups, were processed for paraffin sectioning. The tissue sections were embedded into paraffin blocks using the Leica EG 1160 embedding station. […]

In the case of `CCCCCCCCCCCCOS(=O)(=O)[O-].[Na+]` [20% SDS (positive control)], the “Paracellular marker [^14C]-Mannitol: Papp” value ([1]; Caco-2) is reported as 30 ± 1 ×10⁻⁶ cm/s.

In the case of `OCC(O)C(O)C(O)C(O)[14CH2]O` (stereo not drawn) [[^14C]-Mannitol], the “Papp of [^14C]-Mannitol (model validation)” value ([1]; tested using this Caco-2 monolayer cell model) is listed as 0.33 ×10⁻⁶ cm/s and the “Papp of [^14C]-Mannitol, reported value” [2] is listed as 0.12 ×10⁻⁶ cm/s.

In the case of `C=O` [formaldehyde], the “TEER value after treatment” value [3] is reported as < 165 Ω*cm^2.

With `OC[C@@H](O)[C@@H](O[C@@H]1O[C@H](CO)[C@H](O)[C@H](O)[C@H]1O)[C@H](O)[C@@H](O)CO` [lactitol] the “Cryoprotecting effect on Q-GRFT content of lyophilized powder” value (“Cryoprotecting effect on Q-GRFT content” below) [4] was “no protection”.

For `OC[C@@H](O)[C@@H](O[C@H]1O[C@H](CO)[C@@H](O)[C@H](O)[C@H]1O)[C@H](O)[C@@H](O)CO` [maltitol], the “Cryoprotecting effect on Q-GRFT content” value [4] was “concentration-dependent protection”.

With `OC[C@H]1O[C@@](CO)(O[C@H]2O[C@H](CO)[C@@H](O)[C@H](O)[C@H]2O)[C@@H](O)[C@@H]1O` [sucrose] the “Cryoprotecting effect on Q-GRFT content” value [4] was “concentration-dependent protection”.

For `OC[C@H]1O[C@H](O[C@H]2O[C@H](CO)[C@@H](O)[C@H](O)[C@H]2O)[C@H](O)[C@@H](O)[C@@H]1O` [trehalose], the “Cryoprotecting effect on Q-GRFT content” value [4] was “concentration-independent protection”.

In the case of “Q-GRFT: engineered form of griffithsin with increased stability against oxidation; stock solution in 1× PBS”, the “pH of Q-GRFT stock solution” value [5] is reported as “around 7.39”, the “EC50 gp120 binding (ELISA)” value (HIV-1 gp120CM; after lyophilization and reconstitution, Example 2 (FIG. 18)) is reported as 7.02 ng/mL and the “EC50 gp120 binding (ELISA)” value (HIV-1 gp120CM; reference solution, Example 1 (FIG. 11)) is reported as 11.70 ng/mL. For the same compound, the “Q-GRFT content from the receptor sides” value (human colon tissue) was < 1 µg/mL.
